For one data set, the target named is Adenosylhomocysteinase (Homo sapiens, UniProt P23526). Put plainly: Inhibition of recombinant human placental AdoHcy hydrolase expressed in Escherichia coli BL21 using AdoHcy as substrate preincubated for 10 mins followed by substrate addition measured after 20 mins by DTNB coupled assay.
The subject of another data set is A549. Kind of data set: Cytotoxicity against human A549 cells assessed as inhibition of cell proliferation after 72 hrs by sulforhodamine B assay. In kind it is functional, cell-based. Conditions: A549, 72 h.
The subject of a further data set is HCT-116. Kind of data set: Cytotoxicity against human HCT116 cells assessed as inhibition of cell proliferation after 72 hrs by sulforhodamine B assay. The format is functional, cell-based. Conditions: HCT-116, 72 h. (In general: The SRB assay estimates cell density from bound dye.)
The test system of the next data set is MDA-MB-231. Kind of data set: Cytotoxicity against human MDA-MB-231 cells assessed as inhibition of cell proliferation after 72 hrs by sulforhodamine B assay. The format is functional, cell-based. Conditions: MDA-MB-231, 72 h.
In another data set the test system is PC-3. Put plainly: Cytotoxicity against human PC3 cells assessed as inhibition of cell proliferation after 72 hrs by sulforhodamine B assay. In kind it is functional, cell-based. Conditions: PC-3, 72 h.
Data set [1] can be described thus: Cytotoxicity against human SKHEP1 cells assessed as inhibition of cell proliferation after 72 hrs by sulforhodamine B assay. Conditions: SK-HEP1, 72 h. The format is functional, cell-based.
The nature of data set [2]: Cytotoxicity against human SNU638 cells assessed as inhibition of cell proliferation after 72 hrs by sulforhodamine B assay. In kind it is functional, cell-based. Conditions: SNU-638, 72 h.
Data set [3] deals with Vesicular stomatitis virus. Kind of data set: Antiviral activity against vesicular stomatitis virus infected in human HeLa cells assessed as inhibition of viral replication after 3 days by MTT assay. The format is functional, organism-based. Conditions: 72 h.
A further data set has as its system HeLa. Kind of data set: Cytotoxicity against human HeLa cells assessed as cell viability up to 40 uM after 3 days by MTT assay. Conditions: 72 h. The format is cell-based. In general terms: Tetrazolium assays rely on reduction of a dye to a coloured formazan, in cell work by metabolically active cells.
For a further data set, the system named is Picornaviridae. Kind of data set: Antiviral activity against picornavirus infected in CB1 cells assessed as inhibition of viral replication after 3 days by MTT assay. In kind it is functional, organism-based. Conditions: CB1, 72 h.
The nature of data set [4]: Cytotoxicity against CB1 cells (unknown origin) assessed as cell viability up to 100 uM after 3 days by MTT assay. In kind it is cell-based. Conditions: cb1, 72 h.

Molecules are shown by their SMILES.

Adenosylhomocysteinase, sequence (P23526 whole entry): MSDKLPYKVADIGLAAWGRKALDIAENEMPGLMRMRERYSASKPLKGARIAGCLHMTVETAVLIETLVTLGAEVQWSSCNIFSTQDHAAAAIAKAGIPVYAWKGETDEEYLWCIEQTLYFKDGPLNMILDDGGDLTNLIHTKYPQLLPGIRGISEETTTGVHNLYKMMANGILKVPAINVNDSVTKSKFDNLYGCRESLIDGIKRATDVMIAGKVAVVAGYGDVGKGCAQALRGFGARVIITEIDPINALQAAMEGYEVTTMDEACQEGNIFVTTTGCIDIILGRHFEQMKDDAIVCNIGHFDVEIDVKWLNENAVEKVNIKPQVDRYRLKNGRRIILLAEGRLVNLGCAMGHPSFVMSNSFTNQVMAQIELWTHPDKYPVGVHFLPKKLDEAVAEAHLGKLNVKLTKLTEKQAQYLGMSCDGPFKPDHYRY

In general, IC50 refers to the concentration that gives 50% inhibition. As to `CNc1ncnc2c1ccn2[C@@H]1C=C(CO)[C@@H](O)[C@H]1O`, the IC50 at Adenosylhomocysteinase was over 100 µM; in the data set with A549 it was over 100 µM; in the data set with HCT-116, over 100 µM; with MDA-MB-231, 49.5 µM; with PC-3, over 100 µM; in data set [1], 99.2 µM. Also, the IC50 in [2] is over 100 µM.
In the case of `Nc1nccc2c1ncn2[C@@H]1C=C(CCO)[C@@H](O)[C@H]1O`, the IC50 on Adenosylhomocysteinase was 3.76 µM; with A549, 76.5 µM; in the data set with HCT-116, 17.9 µM; in the data set with MDA-MB-231 it was 8.01 µM; in the data set with PC-3 it was over 100 µM; in data set [1] it was 28.9 µM. For the same compound, the concentration for half-maximal inhibition (IC50) in data set [2] came out at 28.2 µM.
For `Nc1ncnc2c1ccn2C1C=C(CO)[C@@H](O)[C@H]1O` (single isomer, unassigned) [DEAZANEPLANOCIN A], the IC50 is over 100 µM on Adenosylhomocysteinase; 1.84 µM with A549; 10.4 µM with HCT-116; 0.79 µM in the data set with MDA-MB-231; 1.62 µM in the data set with PC-3; 1.17 µM in data set [1]. Moreover, in data set [2], the IC50 amounted to 1.2 µM.
For the compound `COc1cc([C@@H]2c3cc4c(cc3[C@@H](O[C@@H]3O[C@@H]5CO[C@@H](C)O[C@H]5[C@H](O)[C@H]3O)[C@H]3COC(=O)[C@H]23)OCO4)cc(OC)c1O` [ETOPOSIDE], the IC50 came to 0.4 µM in the data set with A549, 7.7 µM in the data set with MDA-MB-231, 2.8 µM in data set [1] and 0.3 µM in [2].
As to `Nc1ncnc2c1ncn2[C@@H]1C=C(CO)[C@@H](O)[C@H]1O` [NEOPLANOCIN A], the IC50 amounted to 0.47 µM on Adenosylhomocysteinase; 1.22 µM in the data set with A549; 0.9 µM in the data set on HCT-116; 0.4 µM in the data set with MDA-MB-231; 3.7 µM in the data set with PC-3; 4.5 µM in data set [1]. Besides, the IC50 in data set [2] is 0.7 µM.
As to `Nc1ncnc2c1ncn2[C@@H]1C=C(CCO)[C@@H](O)[C@H]1O`, the IC50 in the data set with A549 was 8.95 µM; with HCT-116, 1.72 µM; in the data set with MDA-MB-231 it was 2.64 µM; in the data set on PC-3 it was over 100 µM; in data set [1], 6.12 µM; in [2], 2.31 µM.
As to `Nc1nccc2c1ncn2[C@@H]1C=C(CO)[C@@H](O)[C@H]1O`, the IC50 in the data set with A549 turned out to be 1.4 µM; with HCT-116, 0.26 µM; in the data set with MDA-MB-231, 0.3 µM; in the data set on PC-3, 9.39 µM; in data set [1] it was 0.72 µM; in [2], 0.91 µM.
For the compound `CNc1ncnc2c1ccn2[C@@H]1C(F)=C(CO)[C@@H](O)[C@H]1O`, the IC50 (at Adenosylhomocysteinase; with A549; in the data set with HCT-116; in the data set with MDA-MB-231; in the data set with PC-3; in data set [1]) was over 100 µM in each case. Further, in data set [2], the IC50 is over 100 µM.
What is called EC50 is the concentration that produces a half-maximal response. With `Nc1ncnc2c1ncn2[C@@H]1C(F)=C(CO)[C@@H](O)[C@H]1O` [FLUORO-NEPLANOCIN A], the half-inhibitory concentration (IC50) was determined as 0.24 µM on Adenosylhomocysteinase; 1.2 µM in the data set on A549; 2.8 µM with HCT-116; 1.4 µM in the data set on MDA-MB-231; 1.4 µM with PC-3; 0.8 µM in data set [1]. In addition, in [2], the IC50 worked out at 2.2 µM. The EC50 in data set [3] came to 0.43 µM. For the same compound, in the data set on HeLa, the Activity result is on record as “Non-toxic”.
For the compound `OCC1=C[C@@H](n2ccc3c(O)ncnc32)[C@H](O)[C@@H]1O`, the IC50 (at Adenosylhomocysteinase; in the data set on A549; in the data set with HCT-116; in the data set with MDA-MB-231; with PC-3; in data set [1]) was over 100 µM in each case. Besides, the IC50 in data set [2] is over 100 µM.
As to `Nc1ccn([C@@H]2O[C@H](CO)[C@@H](O)[C@@H]2O)c(=O)n1` [CYTARABINE], the IC50 in the data set with A549 stood at 1.2 µM; with HCT-116, 2.42 µM; in the data set on MDA-MB-231, 1.37 µM; in the data set with PC-3 it was 50.5 µM; in data set [1], 2.12 µM; in [2], 3.98 µM.
Consider `Nc1ncnc2c1ccn2[C@@H]1C=C(CCO)[C@@H](O)[C@H]1O`, for which the IC50 at Adenosylhomocysteinase is over 100 µM; in the data set with A549, 34 µM; in the data set with HCT-116 it was 32 µM; in the data set with MDA-MB-231, 26.3 µM; with PC-3, over 100 µM; in [1], 42.1 µM. Moreover, the IC50 in data set [2] came out at 30.2 µM.
On to `OCC1=C(F)[C@@H](n2ccc3c(O)ncnc32)[C@H](O)[C@@H]1O`, for which the IC50 (at Adenosylhomocysteinase; with A549; in the data set on HCT-116; with MDA-MB-231; in the data set on PC-3; in [1]) was over 100 µM each time. The IC50 in [2] is over 100 µM.
For `Nc1ncnc2c1ncn2[C@@H]1C(F)=C(CCO)[C@@H](O)[C@H]1O`, the IC50 at Adenosylhomocysteinase is 0.91 µM; in the data set on A549, 11.7 µM; with HCT-116 it was 2.9 µM; in the data set on MDA-MB-231 it was 6.95 µM; in the data set with PC-3, over 100 µM; in data set [1] it was 8.07 µM. Moreover, the IC50 in [2] stood at 3.73 µM.
With `Nc1ncnc2c1ccn2[C@@H]1C(F)=C(CO)[C@@H](O)[C@H]1O`, the IC50 on Adenosylhomocysteinase was over 100 µM; with A549 it was 16.8 µM; in the data set on HCT-116, 0.94 µM; in the data set on MDA-MB-231, 0.94 µM; in the data set on PC-3, 1.3 µM; in data set [1], 1.39 µM. In addition, the IC50 in data set [2] came out at 0.96 µM. Also, the EC50 with Picornaviridae turned out to be 2.34 µM. Also, the Activity entry in data set [4] is reported as “Non-toxic”.

The values are drawn from ChEMBL document CHEMBL3580643, “Structure-Activity Relationships of Neplanocin A Analogues as S-Adenosylhomocysteine Hydrolase Inhibitors and Their Antiviral and Antitumor Activities” (J Med Chem, 2015).
